Laboratory results published in US11434249B1, “ASK1 inhibitor compounds and uses thereof” (Seal Rock Therapeutics, Inc., priority 2018, dated 2022).

Molecular target: ASK1 (Homo sapiens (Human), UniProt Q99683)
Assay: ASK1 Kinase Assay (Promega ASK1 Kinase Enzyme System, ADP-Glo luminescence)
Format: biochemical
Conditions: enzyme 50 nM, ATP 10 μM; for IC50: Myelin basic protein 1 μg/mL
Protocol: The ASK1 enzymatic assay was run following Promega ASK1 Kinase Enzyme System (Cat #V3881). The kit provides the protocol, enzymes and all reagents necessary to run an assay.
The compounds, enzyme, substrate and ATP were diluted in provided assay buffer. The final concentration of the enzyme was 50 nM, substrate (Myelin basic protein) 1 μg/mL and ATP 10 μM. The compound and the enzyme were pre-incubated in a 384-well white solid bottom plate (Greiner, Cat #784075) for 10 minutes. After incubation, the substrate and ATP were added and incubated for an additional 60 minutes. After 60 minutes, ADP-Glo™ was added and the plate was incubated for another 40 minutes. After 40 minutes, Kinase Detection Reagent was added and the plate was incubated for 45 minutes. After 45 minutes, the plate was read on a Perkin Elmer EnVision using luminescence read (0.5 seconds/well).

Chain of ASK1 (Q99683 whole entry): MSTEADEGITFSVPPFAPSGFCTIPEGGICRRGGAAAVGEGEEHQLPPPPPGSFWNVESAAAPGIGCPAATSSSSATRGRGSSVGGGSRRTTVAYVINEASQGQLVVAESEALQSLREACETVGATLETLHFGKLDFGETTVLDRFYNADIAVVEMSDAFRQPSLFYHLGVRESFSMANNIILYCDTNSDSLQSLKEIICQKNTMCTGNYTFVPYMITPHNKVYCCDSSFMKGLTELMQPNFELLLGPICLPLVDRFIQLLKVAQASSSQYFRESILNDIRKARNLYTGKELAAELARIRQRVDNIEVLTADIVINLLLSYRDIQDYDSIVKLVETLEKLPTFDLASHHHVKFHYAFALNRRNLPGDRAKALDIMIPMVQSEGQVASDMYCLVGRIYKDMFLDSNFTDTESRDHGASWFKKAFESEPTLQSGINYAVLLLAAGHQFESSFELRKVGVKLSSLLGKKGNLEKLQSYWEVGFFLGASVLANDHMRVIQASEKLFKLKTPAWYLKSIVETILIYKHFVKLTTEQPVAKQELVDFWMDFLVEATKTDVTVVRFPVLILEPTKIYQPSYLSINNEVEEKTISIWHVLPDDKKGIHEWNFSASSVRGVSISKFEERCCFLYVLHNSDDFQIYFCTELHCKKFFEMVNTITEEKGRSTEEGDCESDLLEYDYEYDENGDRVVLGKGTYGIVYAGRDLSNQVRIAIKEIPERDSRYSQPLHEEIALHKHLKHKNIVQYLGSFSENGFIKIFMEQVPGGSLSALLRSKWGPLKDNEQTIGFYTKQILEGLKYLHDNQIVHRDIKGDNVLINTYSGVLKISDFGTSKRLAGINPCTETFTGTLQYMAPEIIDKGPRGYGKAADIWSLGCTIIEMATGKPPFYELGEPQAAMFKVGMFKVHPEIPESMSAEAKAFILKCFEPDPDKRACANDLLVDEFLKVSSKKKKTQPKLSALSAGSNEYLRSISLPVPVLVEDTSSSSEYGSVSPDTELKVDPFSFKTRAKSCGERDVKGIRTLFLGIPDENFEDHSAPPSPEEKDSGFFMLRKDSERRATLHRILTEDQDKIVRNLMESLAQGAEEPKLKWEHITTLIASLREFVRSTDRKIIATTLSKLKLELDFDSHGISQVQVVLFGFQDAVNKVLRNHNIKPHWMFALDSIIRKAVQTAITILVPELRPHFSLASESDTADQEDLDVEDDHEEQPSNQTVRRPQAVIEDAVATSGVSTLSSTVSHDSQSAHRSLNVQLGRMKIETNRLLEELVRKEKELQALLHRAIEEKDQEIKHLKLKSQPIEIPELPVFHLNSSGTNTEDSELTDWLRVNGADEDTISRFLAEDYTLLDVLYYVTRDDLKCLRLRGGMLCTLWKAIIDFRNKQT

O=C1c2sc(C3CCOCC3)cc2CN1c1cccc(-c2nncn2C2CC2)n1 [Example 4, 5-(6-(4-cyclopropyl-4H-1,2,4-triazol-3-yl)pyridin-2-yl)-2-(tetrahydro-2H-pyran-4-yl)-4,5-dihydro-6H-thieno[2,3-c]pyrrol-6-one]
IC50: < 1000 nM

O=C1c2scc(Br)c2CN1c1cccc(-c2nncn2C2CC2)n1 [Example 10, 3-bromo-5-(6-(4-cyclopropyl-4H-1,2,4-triazol-3-yl)pyridin-2-yl)-4,5-dihydro-6H-thieno[2,3-c]pyrrol-6-one]
IC50: < 1000 nM

O=C1c2sc3ccccc3c2CN1c1cccc(-c2nncn2C2CC2)n1 [Example 12, 2-(6-(4-cyclopropyl-4H-1,2,4-triazol-3-yl)pyridin-2-yl)-1,2-dihydro-3H-benzo[4,5]thieno[2,3-c]pyrrol-3-one]
IC50: < 1000 nM

COc1cc2c(s1)C(=O)N(c1cccc(-c3nncn3C3CC3)n1)C2 [Example 13, 5-(6-(4-cyclopropyl-4H-1,2,4-triazol-3-yl)pyridin-2-yl)-2-methoxy-4,5-dihydro-6H-thieno[2,3-c]pyrrol-6-one]
IC50: < 1000 nM

Cc1csc2c1CN(c1cccc(-c3nncn3C3CC3)n1)C2=O [Example 9, 5-(6-(4-cyclopropyl-4H-1,2,4-triazol-3-yl)pyridin-2-yl)-3-methyl-4,5-dihydro-6H-thieno[2,3-c]pyrrol-6-one]
IC50: < 1000 nM

CC(C)n1cnnc1-c1cccc(N2Cc3ccsc3C2=O)n1 [Example 14, 5-(6-(4-isopropyl-4H-1,2,4-triazol-3-yl)pyridin-2-yl)-4,5-dihydro-6H-thieno[2,3-c]pyrrol-6-one]
IC50: < 1000 nM

CC(=O)c1ccccc1-c1cc2c(s1)C(=O)N(c1cccc(-c3nncn3C3CC3)n1)C2 [Example 2, 2-(2-Acetylphenyl)-5-(6-(4-cyclopropyl-4H-1,2,4-triazol-3-yl)pyridin-2-yl)-4,5-dihydro-6H-thieno[2,3-c]pyrrol-6-one]
IC50: < 1000 nM

Cc1cc2c(s1)C(=O)N(c1cccc(-c3nncn3C3CC3)n1)C2 [Example 5, 5-(6-(4-cyclopropyl-4H-1,2,4-triazol-3-yl)pyridin-2-yl)-2-methyl-4,5-dihydro-6H-thieno[2,3-c]pyrrol-6-one]
IC50: < 1000 nM

CCc1cc2c(s1)C(=O)N(c1cccc(-c3nncn3C3CC3)n1)C2 [Example 6, 5-(6-(4-cyclopropyl-4H-1,2,4-triazol-3-yl)pyridin-2-yl)-2-ethyl-4,5-dihydro-6H-thieno[2,3-c]pyrrol-6-one]
IC50: < 1000 nM

O=C1c2sccc2CN1c1cccc(-c2nncn2C2CC2)n1 [Example 1, 5-(6-(4-Cyclopropyl-4H-1,2,4-triazol-3-yl)pyridin-2-yl)-4,5-dihydro-6H-thieno[2,3-c]pyrrol-6-one]
IC50: < 1000 nM

O=C1c2scc(-c3ccccc3)c2CN1c1cccc(-c2nncn2C2CC2)n1 [Example 7, 5-(6-(4-cyclopropyl-4H-1,2,4-triazol-3-yl)pyridin-2-yl)-3-phenyl-4,5-dihydro-6H-thieno[2,3-c]pyrrol-6-one]
inhibition at 10 µM (at 10 μM compound): 45%

CC(C)CNc1csc2c1CN(c1cccc(-c3nncn3C3CC3)n1)C2=O [Example 11, 5-(6-(4-cyclopropyl-4H-1,2,4-triazol-3-yl)pyridin-2-yl)-3-(isobutylamino)-4,5-dihydro-6H-thieno[2,3-c]pyrrol-6-one]
IC50: 1000 to 10000 nM
